Data taken from ChEMBL document CHEMBL1151357, “Inhibition of Plant Growth by Phenethylamines and Tetrahydroisoquinolines” (1981).
Activity calls are given as the source filed them. No cut-off for these calls is given here.

Tests used:
[1] = system: Phaseolus vulgaris; test: Growth inhibition of pinto bean plants assessed as inhibition of second inter node elongation at 50 ug after 4 days relative to control; assay type: functional
[2] = system: Phaseolus vulgaris; test: Growth inhibition of pinto bean plants assessed as inhibition of second inter node elongation at 150 ug after 4 days relative to control; assay type: functional
[3] = system: Phaseolus vulgaris; test: Phytotoxicity against pinto bean plants assessed as induction of necrosis at 50 ug after 4 days; assay type: functional, organism-based
[4] = system: Phaseolus vulgaris; test: Phytotoxicity against pinto bean plants assessed as induction of necrosis at 150 ug after 4 days; assay type: functional, organism-based
[5] = system: Sorghum bicolor; test: Growth inhibition of Rio sorghum seedlings assessed as shoot growth from seed coat to tip of second leaf at 1 mg/ml after 4 days; assay type: functional
[6] = system: Phaseolus vulgaris; test: Growth promoting activity in pinto bean plants at =>150 ug after 4 days; assay type: functional, organism-based

Row | Compound | inhibition (INH) [1] | inhibition (INH) [2] | Activity [3] | Activity [4] | Activity [5] | Activity [6]
1 | C[N+](C)(C)CCc1ccc(O)cc1.[I-] [CANDICINE IODIDE] | 76% | 76% | Active | Active | 33.22 mm | 
2 | COc1cc([C@@H](O)[C@H](C)N)cc(OC)c1OC.O=C(O)C(O)C(O)C(=O)O | 26% | 0% |  |  |  | 
3 | COc1cc2c(c(O)c1OC)[C@H](C)[N+](C)(C)CC2.[I-] | 0% | 51% | Active |  |  | 
4 | COC(=O)c1cccn1CCc1cc(OC)c(OC)c(OC)c1 [PEYONINE METHYL ESTER] | 0% |  |  |  |  | 
5 | COc1cc2c(cc1O)CCN[C@H]2C.Cl [SALSOLINE HYDROCHLORIDE] | 26% | 51% |  |  |  | 
6 | COc1c(OC(=O)c2ccccc2)c(OC(=O)c2ccccc2)cc2c1C(C)NCC2.Cl (stereo unspecified) | 26% | 26% |  |  |  | 
7 | COc1ccc2c(c1OC)C(C)N(C)CC2.Cl (racemic) | 26% | 100% |  | Active |  | 
8 | CN1CCc2cc3c(c(O)c2C1)OCO3.Cl | 0% | 0% |  |  |  | Active
9 | COc1cc(CC[N+](C)(C)C)cc(OC)c1OC.[I-] [TRICHOCERINE METHYL IODIDE] | 76% | 76% | Active | Active | 36.22 mm | 
10 | COc1cc(CCn2cccc2)cc(OC)c1OC [DECARBOXYPEYONINE] | 51% | 26% |  |  |  | 
11 | COc1cc2c(c(O)c1OC)[C@H](C)N(C)CC2.Cl [PELLOTINE HYDROCHLORIDE] | 26% | 0% |  |  |  | 
12 | COc1cc2c(c(OC)c1OC)C(O)CNC2 (stereo unspecified) | 0% | 0% |  |  |  | 
13 | COc1cc2c(cc1OC)[C@H](C)N(C)CC2.Cl [CARNEGINE HYDROCHLORIDE] | 100% | 100% | Active |  |  | 
14 | O=C(O)C1NCCc2cc(O)c(O)cc21 (stereo unspecified) | 26% | 26% |  |  |  | Active
15 | CI.COc1cc2c(c(OC)c1OC)CNCC2 [ANHALININE METHYLIODIDE] | 100% | 100% |  |  |  | 
16 | Cl.NCCc1cc(O)c(O)cc1O [OXIDOPAMINE HYDROCHLORIDE] | 26% | 26% |  |  |  | 

Row | Compound | inhibition (INH) [1] | inhibition (INH) [2] | Activity [3] | Activity [4] | Activity [5] | Activity [6]
17 | COc1cc([C@@H](O)[C@H](C)N)cc(OC)c1OC.O=C(O)C(=O)O | 26% | 0% |  |  |  | 
18 | COc1cc([C@@H](O)[C@H](C)N)cc(O)c1OC.O=C(O)C(=O)O | 0% | 26% |  | Active |  | 
19 | CC1(C(=O)O)NCCc2cc(O)c(O)cc21 (stereo unspecified) | 51% | 0% |  |  |  | Active
20 | COc1cc([C@@H](O)[C@H](C)N)cc(OC)c1OC.Cl | 26% | 26% |  |  |  | 
21 | COc1cc(CCN)cc(O)c1OC.Cl | 76% | 76% | Active | Active |  | 
22 | COc1cc2c(c(OC)c1OC)CNCC2.Cl [ANHALININE HYDROCHLORIDE] | 0% | 100% |  |  |  | 
23 | COc1cc2c(c(OC)c1OC)CNCC2 |  |  | Active | Active |  | 
24 | COc1cc(CCn2cccc2C(=O)O)cc(OC)c1OC [PEYONINE] | 0% |  |  |  |  | 
25 | COc1cc2c(c(OC)c1OC)[C@H](C)[N+](C)(C)CC2.[I-] | 26% | 51% | Active |  |  | 
26 | COc1cc2c(c(OC)c1OC)C(C)NCC2.Cl (racemic) | 26% | 51% |  |  |  | 
27 | COc1cc([C@@H](O)[C@H](C)N)cc(OC)c1OC |  |  |  | Active |  | 
28 | COc1cc(CCN)cc(OC(=O)c2ccccc2)c1OC.Cl | 51% | 0% |  |  |  | 
29 | Cl.NCC(O)c1cccc(O)c1 (stereo unspecified) [NORPHENYLEPHRINE HYDROCHLORIDE] | 26% |  |  |  |  | 
30 | Cl.NCCc1ccc(O)c(O)c1 [DOPAMINE HYDROCHLORIDE] | 26% | 0% |  |  | 40.44 mm | 
31 | O=C1CCC2(C(=O)O)c3cc(O)c(O)cc3CCN12 (stereo unspecified) | 26% | 26% |  |  |  | Active
